PubChem BioAssay (NCI)
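96-well plates; 48 h exposure; 5 concentrations. Endpoints by linear interpolation between flanking doses. Not reached: highest tested concentration assigned. The concentration for full growth arrest is given as TGI.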

Experiments:
Assay in all cases: DTP human tumour cell line panel, 48 h
[1] = system: UO-31 renal
[2] = system: SK-MEL-2 melanoma
[3] = system: NCI/ADR-RES ovarian
[4] = system: A549 NSCLC
[5] = system: NCI-H226 lung
[6] = system: MOLT-4 leukemia
[7] = system: HL-60(TB) leukemia
[8] = system: SK-MEL-28 melanoma
[9] = system: MDA-MB-231 breast
[10] = system: BT-549 breast
[11] = system: HOP-92 NSCLC
[12] = system: M14 melanoma
[13] = system: CCRF-CEM leukemia
[14] = system: LOX IMVI melanoma
[15] = system: UACC-62 melanoma
[16] = system: OVCAR-8 ovarian
[17] = system: A498 renal
[18] = system: SF-268 CNS
[19] = system: T-47D breast
[20] = system: TK-10 renal
[21] = system: DU-145 prostate
[22] = system: OVCAR-4 ovarian
[23] = system: EKVX NSCLC
[24] = system: SF-295 CNS
[25] = system: SN12C renal
[26] = system: SNB-75 CNS
[27] = system: SK-OV-3 ovarian
[28] = system: 786-0 renal
[29] = system: MDA-N
[30] = system: MDA-MB-435
[31] = system: RPMI-8226 leukemia
[32] = system: CAKI-1 renal
[33] = system: PC-3 prostate
[34] = system: OVCAR-5 ovarian
[35] = system: MALME-3M melanoma
[36] = system: ACHN renal
[37] = system: SW-620 colon
[38] = system: RXF 393 renal
[39] = system: NCI-H522 lung
[40] = system: SK-MEL-5 melanoma
[41] = system: U251 CNS
[42] = system: HT29 colon
[43] = system: HS 578T breast
[44] = system: HCT-116 colon
[45] = system: IGROV1 ovarian
[46] = system: NCI-H460 lung
[47] = system: HOP-62 NSCLC
[48] = system: UACC-257 melanoma
[49] = system: HCC-2998 colon
[50] = system: SR leukemia
[51] = system: HCT-15 colon
[52] = system: SNB-19 CNS
[53] = system: NCI-H23 lung
[54] = system: MCF7 breast
[55] = system: COLO 205 colon
[56] = system: KM12 colon
[57] = system: K-562 leukemia

N#Cc1nc2ccccc2nc1N1CCN(c2ccc([N+](=O)[O-])cc2)CC1
TGI [1]: > 100 µM
TGI [2]: > 100 µM
TGI [3]: > 100 µM
TGI [4]: > 100 µM
TGI [5]: > 100 µM
TGI [6]: 1.05 µM
TGI [7]: > 100 µM
TGI [8]: > 100 µM
TGI [9]: > 100 µM
TGI [10]: > 100 µM
TGI [11]: > 100 µM
TGI [12]: > 100 µM
TGI [13]: > 100 µM
TGI [14]: > 100 µM
TGI [15]: > 100 µM
TGI [16]: > 100 µM
TGI [17]: > 100 µM
TGI [18]: > 100 µM
TGI [19]: > 100 µM
TGI [20]: > 100 µM
TGI [21]: > 100 µM
TGI [22]: > 100 µM
TGI [23]: > 100 µM
TGI [24]: > 100 µM
TGI [25]: > 100 µM
TGI [26]: > 100 µM
TGI [27]: > 100 µM
TGI [28]: > 100 µM
TGI [29]: > 100 µM
TGI [30]: > 100 µM
TGI [31]: > 100 µM
TGI [32]: > 100 µM
TGI [33]: > 100 µM
TGI [34]: > 100 µM
TGI [35]: > 100 µM
TGI [36]: > 100 µM
TGI [37]: > 100 µM
TGI [38]: > 100 µM
TGI [39]: > 100 µM
TGI [40]: > 100 µM
TGI [41]: > 100 µM
TGI [42]: > 100 µM
TGI [43]: > 100 µM
TGI [44]: > 100 µM
TGI [45]: > 100 µM
TGI [46]: > 100 µM
TGI [47]: > 100 µM
TGI [48]: > 100 µM
TGI [49]: > 100 µM
TGI [50]: > 100 µM
TGI [51]: > 100 µM
TGI [52]: > 100 µM
TGI [53]: > 100 µM
TGI [54]: > 100 µM
TGI [55]: > 100 µM
TGI [56]: > 100 µM

C=C1C(=O)OC2CCN3CC=C(COC(=O)C(C)(O)C4(CO4)C1C)C23 (stereo not drawn)
TGI [1]: > 100 µM
TGI [2]: > 100 µM
TGI [3]: > 100 µM
TGI [4]: > 100 µM
TGI [5]: > 100 µM
TGI [6]: > 100 µM
TGI [8]: > 100 µM
TGI [9]: > 100 µM
TGI [10]: > 100 µM
TGI [11]: > 100 µM
TGI [12]: > 100 µM
TGI [13]: > 100 µM
TGI [14]: > 100 µM
TGI [15]: > 100 µM
TGI [16]: > 100 µM
TGI [17]: > 100 µM
TGI [18]: > 100 µM
TGI [19]: > 100 µM
TGI [20]: > 100 µM
TGI [21]: > 100 µM
TGI [22]: > 100 µM
TGI [23]: > 100 µM
TGI [24]: > 100 µM
TGI [25]: > 100 µM
TGI [27]: > 100 µM
TGI [28]: > 100 µM
TGI [29]: > 100 µM
TGI [30]: > 100 µM
TGI [32]: > 100 µM
TGI [33]: > 100 µM
TGI [35]: > 100 µM
TGI [36]: > 100 µM
TGI [37]: > 100 µM
TGI [38]: > 100 µM
TGI [39]: > 100 µM
TGI [40]: > 100 µM
TGI [41]: > 100 µM
TGI [42]: > 100 µM
TGI [43]: > 100 µM
TGI [44]: > 100 µM
TGI [45]: > 100 µM
TGI [46]: > 100 µM
TGI [48]: > 100 µM
TGI [57]: > 100 µM
TGI [49]: > 100 µM
TGI [50]: > 100 µM
TGI [51]: > 100 µM
TGI [52]: > 100 µM
TGI [53]: > 100 µM
TGI [54]: > 100 µM
TGI [55]: > 100 µM
TGI [56]: > 100 µM
